Measurements as given in patent US9618507B2, “Methods of treating rheumatoid arthritis” (Betanien Hospital, priority 2014, dated 2017).
Marks after values point to notes of the source that are not given here. Where a SMILES comes first, the peptide text is derived from it. [ ]: non-standard residue; d: D form. dPhe(4-Cl) = N[C@H](Cc1ccc(Cl)cc1)C(=O)O; d2Nal = N[C@H](Cc1ccc2ccccc2c1)C(=O)O; dCit = NC(=O)NCCC[C@@H](N)C(=O)O; d3Pal = N[C@H](Cc1cccnc1)C(=O)O

Legend:
TNF-α = experiment: Example 2: serum cytokine, multiplex high-sensitivity assay, TNF-α; format: in vivo, human; details: high gonadotropin patients
Protocol: The protocol-specified primary and secondary intention-to-treat endpoints of the original AGRA trial were analyzed in these post hoc analyses. The primary endpoint was the baseline-adjusted between-group difference in DAS28-CRP (Wells et al., supra) by day 5b. Secondary endpoints included the baseline-adjusted between-group difference in cytokines, proportions of patients achieving at least a 20%, 50%, and 70% improvement on the ACR scale (Felson D T, et al., Arthritis Rheum 1995; 38:727-35), categorical DAS28-CRP (European League Against […] [EULAR]) responses (Wells et al., supra; van Gestel A M, et al., Arthritis Rheum 1996; 39:34-40), DAS28-CRP≦3.2 (Wells et al., supra), DAS28-CRP<2.6 (Wells et al., supra), and the incidence of adverse events. Protocol-specified DAS28 outcomes were preferentially CRP-based rather than erythrocyte sedimentation rate (ESR)-based, as CRP usually changes before ESR. […] Multiplex technology (Luminex Inc., Austin, Tex.) measured these serum cytokines using high-sensitivity assays (sensitivities <0.5 pg/mL, allowing the detection of very low concentrations of cytokines) and identical lots of critical reagent of negligible cross-reactivity <2%, according to manufacturers' instructions (Bio-Rad, Hercules, Calif.). […] To enable intention-to-treat analyses with all patients N=53, non-detectable values were set at the lower limit of detection for cytokines, as is common for CRP values.
The original power calculation is previously reported (Kass A S, et al., Scand J Rheumatol Epub ahead of print 1 Nov. 2013). Baseline-adjusted between-group differences for all continuous endpoints were assessed with the use of analysis-of-covariance using outcome measurements at predefined time points as response variables, and treatment and baseline measurements as covariates. Dichotomous endpoints were compared with the Pearson chi-square test or Suissa-Shuster exact unconditional test, depending on expected-value distribution (Lydersen S, et al., Stat Med 2009; 28:1159-75). […]

[1] = system: RA patients with high gonadotropin levels; experiment: Example 2: AGRA post hoc analyses in patients with high gonadotropin levels, disease activity (DAS28-CRP, ACR, EULAR); format: in vivo, human
Description: Post hoc analyses is described herein.
Key inclusion criteria for AGRA were males or females aged ≧18 years with RA that had been diagnosed on the basis of the American College of Rheumatology (ACR) 1987 revised criteria (Arnett F C, et al., Arthritis Rheum 1988; 31:315-24); with active, and moderate or severe disease defined as a Disease Activity Score for 28-joint counts based on C-reactive protein (Wells G, et al., Ann Rheum Dis 2009; 68:954-60) (DAS28-CRP) >3.2 and at least two of the following criteria: ≧6 painful joints, ≧3 swollen joints, ESR ≧20 mm/h, and a C-reactive protein ≧10 mg/L). Prednisolone ≦7.5 mg/day was permitted if stable for at least 4 weeks prior to baseline; NSAIDs were permitted if stable for at least 2 weeks prior to baseline; and disease-modifying anti-rheumatic drugs (DMARDs) were permitted if stable for at least 8 weeks prior to baseline. Tumour necrosis factor-α (TNF-α) inhibitor or other biological agents were not permitted during the trial or within 4 weeks prior to inclusion. Infliximab/adalimumab was not permitted at least 3 months prior to inclusion; Rituximab was not permitted at least 6 months prior to inclusion. Intramuscular, intra-articular or intravenous corticosteroids; any hormone replacement therapy; or oral contraception was not permitted during the trial or within 4 weeks prior to inclusion.
In these post hoc analyses, a subgroup of AGRA patients with high gonadotropin levels were examined. There is no established cut-off for high LH and/or FSH. Therefore, levels above the median were defined as high (e.g., LH>17.3 IU/L and FSH>34.6 IU/L).
The intention-to-treat population was predefined as all randomised patients who received any study-drug injections. Missing values were <1% and could, as predefined, be imputed with the last-observation-carried-forward. The assumptions of normality needed for analyses were approximately valid. All statistical tests were two-sided (α=0.05) and performed with Stata 12 and StatXact 9. Analyses were performed by an offsite statistician who received locked databases from blinded investigators and laboratories, and the allocation key from the offsite central office.

LH, FSH, cortisol = experiment: Example 1: serum hormone assays (LH, FSH, cortisol); format: in vivo, human
Protocol: Ethical committee approval was obtained. […] Safety and efficacy visits, with blood sampling, were between 0730 and 0930 h on days 1 (baseline), 2, 3, 4, 5 (visit 5a), 10, and 15. There was an additional visit (visit 5b) between 1930 and 2130 h when maximum GnRH suppression was anticipated.
Non-competitive immunofluorometric assays were used for the quantitative determination of serum LH and FSH (Dissociation Enhanced Lanthanide Fluoroimmunoassay [DELFIA] kit, Turku, Finland). A competitive immunofluorometric assay was used for the determination of serum oestradiol (DELFIA kit, Turku, Finland). A competitive radioimmunoassay was used for the quantitative determination of serum testosterone (Orion Diagnostica. Espoo, Finland). A competitive Iuminoimmunoassay was used for the quantitative determination of serum cortisol (Immulite 2000, California, USA).

CRP = details: high gonadotropin patients, by day 15
Protocol: The protocol-specified primary and secondary intention-to-treat endpoints of the original AGRA trial were analyzed in these post hoc analyses. The primary endpoint was the baseline-adjusted between-group difference in DAS28-CRP (Wells et al., supra) by day 5b. […] Multiplex technology (Luminex Inc., Austin, Tex.) measured these serum cytokines using high-sensitivity assays (sensitivities <0.5 pg/mL, allowing the detection of very low concentrations of cytokines) and identical lots of critical reagent of negligible cross-reactivity <2%, according to manufacturers' instructions (Bio-Rad, Hercules, Calif.). […]
The original power calculation is previously reported (Kass A S, et al., Scand J Rheumatol Epub ahead of print 1 Nov. 2013). Baseline-adjusted between-group differences for all continuous endpoints were assessed with the use of analysis-of-covariance using outcome measurements at predefined time points as response variables, and treatment and baseline measurements as covariates. […]

GnRH receptors = molecular target: T1, GnRH receptors (Rattus norvegicus, UniProt P30969); details: rats; Rick F G, et al., Prostate 2011; cited from earlier work
T1 construct: through GnRH receptors in rats; host or cells: rats (in vivo)
T1 sequence (P30969 1-327): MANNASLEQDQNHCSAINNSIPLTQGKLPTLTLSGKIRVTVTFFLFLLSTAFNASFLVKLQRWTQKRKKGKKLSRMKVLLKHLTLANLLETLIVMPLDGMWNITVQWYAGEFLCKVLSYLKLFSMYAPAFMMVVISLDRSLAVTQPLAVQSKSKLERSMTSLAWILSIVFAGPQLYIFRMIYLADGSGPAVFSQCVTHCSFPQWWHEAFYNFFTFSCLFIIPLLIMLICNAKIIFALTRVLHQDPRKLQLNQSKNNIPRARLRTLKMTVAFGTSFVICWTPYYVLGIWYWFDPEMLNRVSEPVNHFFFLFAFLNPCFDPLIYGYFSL

[2] = high gonadotropin patients, by day 5, placebo 0%

With CC(=O)N[C@H](Cc1ccc2ccccc2c1)C(=O)N[C@H](Cc1ccc(Cl)cc1)C(=O)N[C@H](Cc1cccnc1)C(=O)N[C@@H](CO)C(=O)N[C@@H](Cc1ccc(O)cc1)C(=O)N[C@H](CCCNC(N)=O)C(=O)N[C@@H](CC(C)C)C(=O)N[C@@H](CCCNC(=N)N)C(=O)N1CCC[C@H]1C(=O)N[C@H](C)C(N)=O [cetrorelix] (Ac-[d2Nal][dPhe(4-Cl)][d3Pal]SY[dCit]LRP[dA]-NH2) the “TNF-α level, Final Day 15” value (TNF-α; N = 27, mean ± SD) was 0.01 ± 2.1 log pg/mL, the “TNF-α Change from baseline by day 15” value (TNF-α; N = 27, placebo +0.02) was −0.45 log pg/mL and the “TNF-α Baseline-Adjusted Between-Group Difference” value (TNF-α; day 15, 95% CI (0.01, 0.96), P < 0.05) was 0.49‡ log pg/mL. The “reductions of DAS28-CRP and cytokines compared to placebo, high gonadotropin groups (N=53) versus the rest of the AGRA population (N=46)” value ([1]; FIG. 5B-E) was “greater reductions”, the “patients achieving DAS28-CRP<2.6” value [1, 2] was 15% and the “patients achieving DAS28-CRP≦3.2” value [1, 2] was 22%. For the same molecule, the “patients achieving EULAR 'Good-Responses'” value [1, 2] was 19%, the “patients achieving ACR20 responses” value ([1]; high gonadotropin patients, by day 5, placebo 19%) was 44% and the “DAS28-CRP change by day 5” value ([1]; high gonadotropin patients, cetrorelix N=27, 95% CI −1.3 to −0.67, placebo −0.40) was −1.0. For the same molecule, the “DAS28-CRP baseline-adjusted between-group difference” value ([1]; high gonadotropin patients, day 5, 95% CI 0.13 to 0.93, P=0.010) was 0.53, the “ACR50 and ACR70 responses compared with placebo” value ([1]; high gonadotropin patients, numbers too small for valid conclusions) was “More patients reached ACR50 and ACR70 responses” and the “DAS28-CRP reduction, prednisolone users (N=13) vs non-users (N=14)” value ([1]; patients who received cetrorelix, P=0.73) was “similar”. The “LH and FSH levels” value (LH, FSH, cortisol; all patients allocated to cetrorelix, onset) was “reduced as early as day 2”, the “Cortisol changes between groups” value (LH, FSH, cortisol; all patients, by day 5, p 0.80) was “not significantly different between groups” and the CRP between-group difference (CRP; 95% CI 0.22 to 10.7, P=0.042) was 5.45 mg/L. For the same molecule, the CRP change (CRP; placebo 0.85) was -5.1 mg/L and the “pro-inflammatory cytokine gene expression through GnRH receptors” value (GnRH receptors) was “directly decrease”.
